The nature of series [1]: Acute toxicity, intravenous, mice. To be noted: mouse, in vivo; intravenous, within 24 hours; read-out: Evaluated LD50-range. The class given is in vivo.
In another series the test system is female NMRI-albino mice. Nature of the series: Acute toxicity, intravenous, mice. The class given is in vivo. To be noted: within 24 hours.
In a further series the test system is narcotised guinea pigs. Nature of the series: Blood pressure experiments on guinea pigs, i.v. The class given is in vivo, guinea pig.
For a further series, the system named is mongrel cats. Nature of the series: Inotropic and heart-circulatory effectiveness on narcotised cats, intravenous. The class given is in vivo, cat. The note with it: 6 animals; for blood pressure before / dp/dt (inotropism) before / heart frequency before: before administration.

Each structure is given as a SMILES string. Bounds are passed on as bounds.

Take `CN(CCCCc1ccccc1)[C@H]1CO[C@H]2[C@@H]1OC[C@@H]2O[N+](=O)[O-]` [Example 22, 5-[N-(4-Phenylbutyl)-N-methylamino]-5-desoxy-1.4;3.6-dianhydro-L-iditol 2-nitrate]: in series [1], the 50% lethal dose (LD50) at 24 h was no less than 50 mg/kg. Moreover, the Frequency of death in the series on female NMRI-albino mice (50 mg/kg i.v.) was 1/3; in the series on female NMRI-albino mice (100 mg/kg i.v.), 3/3; in the series on female NMRI-albino mice (200 mg/kg i.v.) it was 6/6.
As for `O=[N+]([O-])O[C@@H]1CO[C@H]2[C@@H]1OC[C@@H]2NCCCCc1ccccc1` [Example 43, 2-(4-phenylbutylamino)-2-desoxy-1.4;3.6-dianhydro-D-glucitol 5-nitrate], in series [1], the median lethal dose (LD50) at 24 h is no less than 50 mg/kg. The Frequency of death was 1/3 with female NMRI-albino mice (50 mg/kg i.v.), 3/3 in the series with female NMRI-albino mice (100 mg/kg i.v.) and 6/6 in the series on female NMRI-albino mice (200 mg/kg i.v.).
With `O=[N+]([O-])O[C@H]1CO[C@H]2[C@@H]1OC[C@@H]2NCCCOc1cccc(C(F)(F)F)c1` [Example 58, 5-[3-(3-Trifluoromethylphenoxy)-propylamino]-5-desoxy-1.4;3.6-dianhydro-L-iditol 2-nitrate], in series [1], the 50% lethal dose (LD50) at 24 h is roughly 100 mg/kg. Also, the Frequency of death in the series with female NMRI-albino mice (100 mg/kg i.v.) was 7/12.
In the case of `COc1ccc(CCCCN[C@H]2CO[C@H]3[C@@H]2OC[C@@H]3O[N+](=O)[O-])cc1` [Example 32, 5-[4-(4-Methoxyphenyl)-butylamino]-5-desoxy-1.4;3.6-dianhydro-L-iditol 2-nitrate], the LD50 at 24 h in series [1] was 50 to 100 mg/kg. The figures for the Frequency of death with female NMRI-albino mice (50 mg/kg i.v.) and in the series with female NMRI-albino mice (100 mg/kg i.v.) were 1/10 and 10/10, respectively.
Take `CCOc1ccccc1OCC(O)CN[C@H]1CO[C@H]2[C@@H]1OC[C@@H]2O[N+](=O)[O-]` (stereo partly drawn) [Example 47, 5-[2-Hydroxy-3-(2-ethoxyphenoxy)-propylamino]-5-desoxy-1.4;3.6-dianhydro-L-iditol 2-nitrate]: in the series with narcotised guinea pigs (0.25 mg/kg i.v.), the blood pressure after is 41.25 ± 2.78 mm.Hg and the “blood pressure Δ” value was -5.75 mm.Hg. In the series with narcotised guinea pigs (0.25 mg/kg i.v., before administration), this compound came in with a blood pressure before of 47.00 ± 3.39 mm.Hg. Further, in the series on narcotised guinea pigs (1.00 mg/kg i.v.), the blood pressure after was 33.75 ± 2.02 mm.Hg and the “blood pressure Δ” value was -10.75 mm.Hg. In the series with narcotised guinea pigs (2.50 mg/kg i.v.), the blood pressure after is on record as 25.75 ± 1.31 mm.Hg and the “blood pressure Δ” value is -13.75 mm.Hg. In the series with mongrel cats (0.25 mg/kg i.v.), the blood pressure before is 125.7 mm.Hg, the “dp/dt (inotropism) before” value came to 8333 mm.Hg/sec, the heart frequency before came to 187.3 min⁻¹ and the “blood pressure WD” value was found to be 3.0 min. Besides, in the series with mongrel cats (0.25 mg/kg i.v.), the blood pressure after is listed as 121.7 mm.Hg, the “blood pressure Δ” value was -4.0 mm.Hg, the “dp/dt (inotropism) after” value worked out at 7433 mm.Hg/sec and the “dp/dt (inotropism) Δ” value was -900 mm.Hg/sec. Moreover, in the series on mongrel cats (0.25 mg/kg i.v.), the “dp/dt WD” value turned out to be 3.7 min, the heart frequency after is 188.7 min⁻¹ and the “heart frequency Δ” value is reported as “+1.4 min^-1”. Moreover, in the series with mongrel cats (0.50 mg/kg i.v.), the “blood pressure WD” value amounted to 5.7 min, the blood pressure after is given as 114.2 mm.Hg, the “blood pressure Δ” value is on record as -11.3 mm.Hg and the “dp/dt (inotropism) after” value came to 7150 mm.Hg/sec. Also, in the series on mongrel cats (0.50 mg/kg i.v.), the “dp/dt (inotropism) Δ” value is -1417 mm.Hg/sec, the “dp/dt WD” value is given as 9.5 min, the heart frequency after stood at 196.0 min⁻¹ and the “heart frequency Δ” value is “+0.3 min^-1”. For the same compound, in the series with mongrel cats (1.00 mg/kg i.v.), the “blood pressure WD” value amounted to 8.2 min, the blood pressure after worked out at 100.8 mm.Hg, the “blood pressure Δ” value is on record as -24.3 mm.Hg and the “dp/dt (inotropism) after” value came to 5067 mm.Hg/sec. In addition, in the series on mongrel cats (1.00 mg/kg i.v.), the “dp/dt (inotropism) Δ” value is given as -2983 mm.Hg/sec, the “dp/dt WD” value turned out to be 10.9 min, the heart frequency after was found to be 187.0 min⁻¹ and the “heart frequency Δ” value was -5.0 min⁻¹. In the series on mongrel cats (2.50 mg/kg i.v.), the “blood pressure WD” value is listed as greater than 9.0 min, the blood pressure after is recorded as 79.5 mm.Hg, the “blood pressure Δ” value is reported as -45.2 mm.Hg and the “dp/dt (inotropism) after” value is listed as 2933 mm.Hg/sec. Moreover, in the series on mongrel cats (2.50 mg/kg i.v.), the “dp/dt (inotropism) Δ” value was -4500 mm.Hg/sec, the “dp/dt WD” value was greater than 10 min, the heart frequency after turned out to be 171.7 min⁻¹ and the “heart frequency Δ” value was -20.3 min⁻¹.
`O=[N+]([O-])O[C@@H]1CO[C@H]2[C@@H]1OC[C@@H]2NCCCOc1ccccc1` [Example 42, 2-(3-Phenoxypropylamino)-2-desoxy-1.4;3.6-dianhydro-D-glucitol 5-nitrate]: the LD50 at 24 h in series [1] was 50 to 100 mg/kg. The Frequency of death in the series with female NMRI-albino mice (50 mg/kg i.v.) is 0/3; in the series with female NMRI-albino mice (100 mg/kg i.v.), 2/3; in the series on female NMRI-albino mice (200 mg/kg i.v.) it was 6/6.
`O=[N+]([O-])O[C@H]1CO[C@H]2[C@@H]1OC[C@@H]2NCCCOc1ccc(Cl)cc1Cl` [Example 72, 5-[3-(2,4-Dichlorophenoxy)-propylamino]-5-desoxy-1.4;3.6-dianhydro-L-iditol2-nitrate]: the LD50 at 24 h in series [1] is greater than 100 mg/kg. The Frequency of death with female NMRI-albino mice (100 mg/kg i.v.) is listed as 0/6.
Regarding `COc1cc(OC)cc(OCCCN[C@H]2CO[C@H]3[C@@H]2OC[C@@H]3O[N+](=O)[O-])c1` [Example 66, 5-[3-(3,5-Dimethoxyphenoxy)-propylamino]-5-desoxy-1.4;3.6-dianhydro-L-iditol 2-nitrate], in series [1], the 50% lethal dose (LD50) at 24 h fell in the range of 100 to 200 mg/kg. Moreover, the Frequency of death in the series with female NMRI-albino mice (100 mg/kg i.v.) is given as 2/10; in the series on female NMRI-albino mice (200 mg/kg i.v.), 3/3.
Taken in the same sequence, the figures for `COc1ccccc1OCC(O)CN[C@H]1CO[C@H]2[C@@H]1OC[C@@H]2O[N+](=O)[O-]` (stereo partly drawn) [Example 46, 5-[2-Hydroxy-3-(2-methoxyphenoxy)-propylamino]-5-desoxy-1.4;3.6-dianhydro-L-iditol 2-nitrate] were 100 to 200 mg/kg, 0/3 and 2/3.
Turning to `O=[N+]([O-])O[C@H]1CO[C@H]2[C@@H]1OC[C@@H]2NCCCCCc1ccccc1` [Example 30, 5-(5-Phenylpentylamino)-5-desoxy-1.4;3.6-dianhydro-L-iditol 2-nitrate], in the series with mongrel cats (0.25 mg/kg i.v.), the blood pressure before was found to be 105.7 mm.Hg, the “dp/dt (inotropism) before” value is 9600 mm.Hg/sec, the heart frequency before was 199.7 min⁻¹ and the “blood pressure WD” value amounted to 9.2 min. In the series with mongrel cats (0.25 mg/kg i.v.), the blood pressure after is listed as 88.2 mm.Hg, the “blood pressure Δ” value is -17.5 mm.Hg, the “dp/dt (inotropism) after” value worked out at 8340 mm.Hg/sec and the “dp/dt (inotropism) Δ” value was -1260 mm.Hg/sec. In the series on mongrel cats (0.25 mg/kg i.v.), the “dp/dt WD” value is 10.2 min, the heart frequency after is 198.0 min⁻¹ and the “heart frequency Δ” value is -1.7 min⁻¹. In the series on mongrel cats (0.50 mg/kg i.v.), the “blood pressure WD” value was 11.2 min, the blood pressure after came to 81.8 mm.Hg, the “blood pressure Δ” value is given as -25.0 mm.Hg and the “dp/dt (inotropism) after” value was 7540 mm.Hg/sec. Also, in the series on mongrel cats (0.50 mg/kg i.v.), the “dp/dt (inotropism) Δ” value is listed as -1820 mm.Hg/sec, the “dp/dt WD” value is reported as 13.7 min, the heart frequency after is 200.3 min⁻¹ and the “heart frequency Δ” value was -0.7 min⁻¹. Moreover, in the series with mongrel cats (1.00 mg/kg i.v.), the “blood pressure WD” value is on record as 22.2 min, the blood pressure after was found to be 73.3 mm.Hg, the “blood pressure Δ” value was -33.0 mm.Hg and the “dp/dt (inotropism) after” value was found to be 6160 mm.Hg/sec. Moreover, in the series on mongrel cats (1.00 mg/kg i.v.), the “dp/dt (inotropism) Δ” value is on record as -2180 mm.Hg/sec, the “dp/dt WD” value worked out at 23.6 min, the heart frequency after was 196.0 min⁻¹ and the “heart frequency Δ” value was -2.3 min⁻¹. For the same compound, in the series with mongrel cats (2.50 mg/kg i.v.), the “blood pressure WD” value is recorded as greater than 10 min, the blood pressure after is 60.3 mm.Hg, the “blood pressure Δ” value is -45.8 mm.Hg and the “dp/dt (inotropism) after” value amounted to 5840 mm.Hg/sec. Also, in the series with mongrel cats (2.50 mg/kg i.v.), the “dp/dt (inotropism) Δ” value is listed as -2060 mm.Hg/sec, the “dp/dt WD” value is greater than 10 min, the heart frequency after turned out to be 188.3 min⁻¹ and the “heart frequency Δ” value is -2.0 min⁻¹.
On to `COc1cccc(OC)c1OCCCN[C@H]1CO[C@H]2[C@@H]1OC[C@@H]2O[N+](=O)[O-]` [Example 65, 5-[3-(2,6-Dimethoxyphenoxy)-propylamino]-5-desoxy-1.4;3.6-dianhydro-L-iditol 2-nitrate], for which the median lethal dose (LD50) at 24 h in series [1] was roughly 50 mg/kg. Also, the Frequency of death with female NMRI-albino mice (50 mg/kg i.v.) was 4/10; with female NMRI-albino mice (100 mg/kg i.v.), 10/10; in the series with female NMRI-albino mice (200 mg/kg i.v.), 3/3.
With `COc1ccc(OCC(O)CN[C@H]2CO[C@H]3[C@@H]2OC[C@@H]3O[N+](=O)[O-])cc1` (stereo partly drawn) [Example 44, 5-[2-Hydroxy-3-(4-methoxyphenoxy)-propylamino]-5-desoxy-1.4;3.6-dianhydro-L-iditol 2-nitrate], the LD50 at 24 h in series [1] is 100 to 200 mg/kg. The figures for the Frequency of death in the series with female NMRI-albino mice (100 mg/kg i.v.) and in the series with female NMRI-albino mice (200 mg/kg i.v.) were 0/3 and 2/3, respectively.
For `N[C@H]1CO[C@H]2[C@@H]1OC[C@@H]2O[N+](=O)[O-]` [1 c], in series [1], the LD50 at 24 h is greater than 200 mg/kg. Moreover, in the series on female NMRI-albino mice (200 mg/kg i.v.), the Frequency of death was 0/3.
As for `O=[N+]([O-])O[C@H]1CO[C@H]2[C@@H]1OC[C@@H]2NCCCOc1ccc(Cl)cc1` [Example 68, 5-[3-(4-Chlorophenoxy)-propylamino]-5-desoxy-1.4;3.6-dianhydro-L-iditol 2-nitrate], the LD50 at 24 h in series [1] is roughly 100 mg/kg. In addition, in the series with female NMRI-albino mice (100 mg/kg i.v.), the Frequency of death is given as 4/9.
As for `O=[N+]([O-])O[C@H]1CO[C@H]2[C@@H]1OC[C@@H]2NCCCOc1ccccc1Cl` [Example 69, 5-[3-(2-Chlorophenoxy)-propylamino]-5-desoxy-1.4;3.6-dianhydro-L-iditol 2-nitrate], in series [1], the LD50 at 24 h fell in the range of 50 to 100 mg/kg. Besides, the Frequency of death was 0/10 in the series on female NMRI-albino mice (50 mg/kg i.v.) and 3/6 in the series on female NMRI-albino mice (100 mg/kg i.v.).
For `O=[N+]([O-])O[C@H]1CO[C@H]2[C@@H]1OC[C@@H]2NCCCCOc1ccccc1` [Example 37, 5-(4-Phenoxybutylamino)-5-desoxy-1.4;3.6-dianhydro-L-iditol 2-nitrate], the LD50 at 24 h in series [1] is no less than 50 mg/kg. Also, the figures for the Frequency of death with female NMRI-albino mice (50 mg/kg i.v.), with female NMRI-albino mice (100 mg/kg i.v.) and in the series with female NMRI-albino mice (200 mg/kg i.v.) were 3/10, 10/10 and 3/3, respectively.

For the origin of these results see patent US4363805A, “Aminodesoxy-1.4;3.6-dianhydrohexitol nitrates and pharmaceutical composition” (Firma Willmar Schwabe, priority 1980, dated 1982).
